Test results published in patent US9669016B2, “Antiparasitic effect of Bis[3,5-Bis(Benzylidene)-4-Oxo-1-Piperidinyl]amide Derivatives” (priority 2014, dated 2017).

What was measured:
[1] = system: L. major metacyclic promastigotes; assay: Murine model for cutaneous leishmaniasis (footpad infection); type: in vivo, BALB/c mice; settings: 10^5 L. major metacyclic promastigotes, intraperitoneal daily treatment
Procedure: (§1) The in vivo experiments were comprised of four groups of five mice each: (1) infected, but not treated [control for the infection—100 μL of DMSO per day, drug diluent]; (2) treated with NC884, NC901 or NC2459, but not infected with the parasites [control for drug toxicity]; (3) infected with the parasites and treated with amphotericin B (8 mg/kg/day) [reference drug; positive control]; and (4) infected with the parasites and treated with NC884, NC901 or NC2459 [experimental group]. Luciferase expressing metacyclic promastigotes L. major (Freidlin V1) were obtained as described previously. Suspensions of 1×10^5 or 1×10^6 parasites per 50 μl of sterile DMEM (endotoxin-free) were injected with a 30G needle into the left hind footpad of BALB/c mice. Two weeks post-infection the compounds were administered once a day by intraperitoneal route, daily for 14 to 17 days. Twice a week, weights were recorded to monitor toxicity and the thickness of the infected footpad and the non-infected footpad was measured with digital calipers to monitor the progression of the disease. The parasitic load also was evaluated through in vivo imaging using luminescence (Kodak Image Station). The mice were injected intra-peritoneally with 150 mg/kg D-luciferin (Sigma, USA) 10 min before imaging, anesthetized with 1-2% isofluorane in oxygen during imaging and the net intensity emitted from the footpad was quantified using the KODAK Image Station software. Parasite burden was expressed as net intensity emitted from L. major infected footpad lesions normalized against the background fluorescence of uninfected mice. The presence/absence of parasites was confirmed by PCR using L. major methionine aminopeptidase (MetAP1) 1 specific primers: 5′-[…]-3′ (SEQ ID NO:1) and 5′-[…]-3′ (SEQ ID NO:2) on cDNA reverse transcribed from total RNA extracted from footpad lysate obtained by macerating footpad tissue fragments in Trizol (Invitrogen Life Technologies, United States) with the gentleMACS™ Dissociator (Miltenyi Biotec GmbH, Germany) following the manufacturer's protocol.

[2] = Weight and toxicity monitoring in treated infected mice; type: in vivo, BALB/c mice; settings: 10^5 infection experiment, daily IP treatment
Procedure: as §1

C[C@@H]1[C@H](O)[C@@H](C)/C=C/C=C/C=C/C=C/C=C/C=C/C=C/[C@H](O[C@@H]2O[C@H](C)[C@@H](O)[C@H](N)[C@@H]2O)C[C@@H]2O[C@](O)(C[C@@H](O)C[C@@H](O)[C@H](O)CC[C@@H](O)C[C@@H](O)CC(=O)O[C@H]1C)C[C@H](O)[C@H]2C(=O)O [amphotericin B, reference compound]
footpad swelling [1]: reduced footpad swelling
weight loss [2]: much more dramatic loss in weight
